Test results as given in US8343916B2, “Use of heat-shock protein 27 for cardiovascular disease prevention and treatment” (Ottawa Heart Institute Research Corporation, priority 2007, dated 2013).
Entries after “also recorded” stand apart in the source; their conditions may differ.

Columns and labels:
[1] = tested on: Human macrophages (U937); assay: HSP27 secretion from human macrophages (Western blot of conditioned media); format: cell-based
Protocol: (§1) Cell lysates were obtained using a RIPA buffer [1% NP-40, 0.5% sodium deoxycholate, 0.1% SDS, Complete™ inhibitor in PBS]. Cells were washed twice with PBS, lysed in RIPA buffer, collected using a cell scraper, and placed on ice for 45 minutes. Cell debris was collected by centrifugation at 15,000×g for 20 minutes, and the supernatant containing the cellular protein was isolated. Protein was quantified using Bradford reagent (Sigma). For western blotting, 50 μg of whole cell protein was loaded onto a 10% SDS-PAGE gel and separated at 120V using gel electrophoresis. Protein was then transferred to a PVDF membrane (BioRad, Hercules, Calif.) for 2 hours at 60V. Membranes were then subjected to western blotting using the following antibodies: anti-HSP27 (Santa Cruz, 1:200); anti-SR-A (Chemicon, 1:2000); anti-IL-1β (R&D, 1:500); anti-IL-10 (Santa Cruz, 1:200).
Human macrophages (U937) were plated in replicates at a density of […] per well and treated with estradiol or acLDL. […] Macrophages were subjected to increasing concentrations of acLDL (1 to 100 μg/mL) for 24 hours.

[2] = tested on: aortic endothelial cells; assay: HSP27 secretion from aortic endothelial cells (Western blot); format: cell-based, human; conditions: DPN 1 nM, 24 h
Text: (§2) HSP27 was detected in the extracellular space by Western blot.

[3] = tested on: aortic smooth muscle cells; assay: HSP27 secretion from aortic smooth muscle cells (Western blot); format: cell-based, human; conditions: DPN 1 nM, 24 h
Text: as §2

[4] = tested on: macrophages (acLDL uptake via the scavenger receptor A); assay: Fluorescent acLDL uptake by macrophages; format: cell-based, mouse
Protocol: Cells were treated with Dil-acLDL (5 μg/ml) for 4 hours at 37° C., in the presence of recombinant HSP27 (5 μg/ml) and/or fucoidan (10 μg/ml). Cells were harvested by gentle cell scraping in 100 μl of PBS. Each sample was analyzed for acLDL fluorescence on a BMG PolarStar plate reader (excitation: 510 nm, emission: 570 nm) and normalized to total cell number using the Vi-Cell cell counter (Beckman Coulter, Mississauga, ON).
Foam cell formation is a hallmark process in the development of atherosclerosis, and prevention of lipid uptake by macrophages may serve to reduce overall lesion development and inflammation. If HSP27 can bind the SR-A in vitro, and there is an atheroprotective effect of HSP27 in vivo, HSP27 may prevent the SR-A from taking up atherogenic lipids such as acLDL and becoming foam cells. In support of this, mouse macrophages were cultured in vitro in the presence of fluorescently labeled acLDL for […], and acLDL uptake was measured using a fluorometer and normalized to total cell number.
Extracellular HSP27 inhibits uptake of acLDL by macrophages via the scavenger receptor A. Fluorescently labeled acLDL (5 μg/ml) was given to macrophages in the presence (right columns) or absence (left columns) of recombinant HSP27 (5 μg/ml). […] Fluorescent uptake was measured and normalized to total cell number.

[5] = molecular target: T1, scavenger receptor A (SR-A) (Mus musculus, UniProt P30204); assay: Immunolabeling of recombinant HSP27 binding to macrophage surface and SR-A
T1 construct: detection of a ˜50 kDa band corresponding to SR-A in these cells; endogenous in cells; host or cells: J774 mouse macrophages (untransfected); mouse peritoneal macrophages
T1 sequence (P30204 1-458): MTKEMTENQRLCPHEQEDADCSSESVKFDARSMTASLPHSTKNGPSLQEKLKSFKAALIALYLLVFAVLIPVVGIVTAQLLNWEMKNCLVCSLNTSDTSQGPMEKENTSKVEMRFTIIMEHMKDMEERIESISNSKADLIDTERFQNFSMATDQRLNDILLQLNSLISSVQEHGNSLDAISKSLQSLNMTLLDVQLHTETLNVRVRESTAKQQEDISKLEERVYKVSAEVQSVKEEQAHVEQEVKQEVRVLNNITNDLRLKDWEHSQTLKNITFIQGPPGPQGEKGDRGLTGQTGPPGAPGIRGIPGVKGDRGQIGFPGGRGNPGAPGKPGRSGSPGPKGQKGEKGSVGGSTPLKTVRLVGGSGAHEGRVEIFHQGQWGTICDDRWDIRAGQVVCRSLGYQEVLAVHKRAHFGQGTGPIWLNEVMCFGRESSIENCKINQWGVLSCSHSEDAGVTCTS
Protocol: J774 cells treated with recombinant HSP27 (5 μg/ml) with or without fucoidan (10 μg/ml) were fixed with BD Cytofix (BD Biosciences, Mississauga, ON) and blocked with 2% bovine serum albumin (BSA) for 2 hours. Antibodies against human HSP27 (Chemicon, 1:200) and scavenger receptor A (Serotec, 1:200) were incubated overnight at 4° C. Visualization of substrates was done using secondary antibodies conjugated to fluoroscein (for HSP27) and Texas Red (for SR-A). Negative controls included incubation with control IgG and secondary antibody alone.
Cells were grown on cover slips, and transfected as described above. Cells were fixed with BD Cytofix as directed by the manufacturer and mounted with Dako Fluorescent mounting media (Dako Cytomation, Mississauga, ON). Coverslips were visualized with an Olympus FluoView FV1000 confocal microscope (Olympus America Inc, Center Valley, Pa.) at 100× magnification, using sequential scanning to reduce any potential non-specific excitation of the different fluorophores.
Cells were also treated with an SR-A specific competitive ligand (fucoidan, 10 ug/ml) before administration of HSP27 (bottom panel). Co-localization is seen as a yellow colour. […] Macrophages from SR-A null mice were harvested and incubated with recombinant HSP27 (5 μg/ml) for 2 hours at 4° C. Immunolabeling was performed as described above.

[6] = tested on: ApoE−/− mice; assay: Short term (3 week) rHSP27 treatment of ApoE−/− mice on high fat diet; format: in vivo, mouse
Protocol: ApoE^−/− mice were maintained on a high fat diet and randomized to rHSP27 (100 ug) vs. phosphate buffered saline (PBS) twice a day for 3 weeks.
FIG. 22A depicts the experimental design: ApoE^−/− mice were maintained on a high fat diet and randomized to rHSP27 (100 ug) vs. phosphate buffered saline (PBS) twice a day for 3 weeks. The mice were then euthanized and blood samples were collected. After perfusing with phosphate-buffered saline (PBS) followed by 4% paraformaldehyde (PFA) in PBS via the left ventricle, the heart and aorta were removed and immersed in 4% PFA/PBS at 4° C. overnight. Serum lipoprotein separation was performed by fast-performance liquid chromatography (FPLC) analysis using a Superose 6 column (Pharmacia Biotech Inc., Piscataway, N.J., USA) on an HPLC system model 805 MANOMETRIC MODULE (GILSON). An enzymatic assay kit (Wako Pure Chemical Industries, Ltd, Osaka, Japan) was employed to determine cholesterol level. The content of the aortic atherosclerotic lesions were assessed using quantitative histochemical and immunohistochemical methods. Dark red oil red O staining identifying lipidoid deposits, while Haematoxylin and eosin (H&E) stained denote tissue histopathology.
Hematoxylin and eosin (H&E) stained tissue sections were also labeled for nuclear staining (blue fluorescent Hoechst 33258), apoptosis (green fluorescent TUNEL labeling) and macrophages accumulation (green fluorescent Mac-2).

[7] = rHSP27 pharmacokinetic experiments (subcutaneous injection); format: in vivo, mouse; conditions: 100 μg subcutaneously, male and female ApoE−/− mice; similar to female ApoE−/− HSP27o/e mice
Protocol: These were performed by injecting 100 μg of purified rHSP27 or control BSA (in PBS) subcutaneously into male and female ApoE^−/− mice and then checked serum rHSP27 levels at various times post-injection (n=3-6).

[8] = tested on: Insulin; assay: rHSP27 chaperone activity assay (DTT-induced aggregation of insulin); format: biochemical; conditions: Insulin 40 μM; Insulin:rHSP27 10:1 and 100:1; 43° C.; absorbance at 320 nm
Protocol: The rHSP27 was produced in E. coli. The rHSP27 so produced is >90% endotoxin free (endotoxin concentration assessed using Limulus Amebocyte Lysate gel-blot Assay: 2-3 EU/mg protein). Based on in vitro chaperone assay experiments, the protein is “functional”. […] The DTT-induced aggregation of insulin was performed in the absence and presence of rHSP27 in PBS solution, pH 7.4, to measure the chaperone activity of rHSP27. Insulin (40 μM) with different concentration of rHSP27 (Insulin: rHSP27=10:1 and 100:1 and no rHSP27) in PBS were incubated for 10 min at 43° C., respectively. Aggregation was monitored by measure the absorbance at 320 nm in Bioteck Synergy Mx spectrophotometer for 30 min at 43° C. after add DTT to a final concentration of 20 mM.

[9] = tested on: macrophages (IL-1β, IL-10 release); assay: Cytokine release from acLDL-treated macrophages (western blot of conditioned media); format: cell-based, mouse; conditions: recombinant HSP27 5 μg/ml, acLDL 5 ug/ml, 30 minutes and 4 hours
Protocol: as §1
Fluorescently labeled acLDL (5 ug/ml) was given to macrophages in the presence or absence of recombinant HSP27 (5 μg/ml). Conditioned media was collected after 30 minutes and 4 hours and subjected to western blotting for IL-1β (FIG. 7A) and IL-10 (FIG. 7B). Addition of HSP27 caused a decrease in the acLDL-induced secretion of IL-1β into the extracellular space.

With `N#CC(Cc1ccc(O)cc1)c1ccc(O)cc1` (stereo not shown) [DPN] the “HSP27 secretion upon stimulation of ERβ” value ([1]; DPN 1 nM, 4 h or 24 h) was “enhanced”, the “HSP27 secretion from endothelial cells” value [2] was “increase in HSP27 secretion” and the “HSP27 secretion from smooth muscle cells” value [3] was “not smooth muscle cells”.

For `C[C@]12CC[C@@H]3c4ccc(O)cc4CC[C@H]3[C@@H]1CC[C@@H]2O` [E2, 17β-estradiol], the “intracellular HSP27 protein levels” value [1] was “increased slightly”, the “colocalization of HSP27 with lysosome marker LAMP1” value ([1]; 100 nmol/L E2 overnight) was “displayed colocalization of HSP27 (red) and LAMP1” and the “HSP27 release into the media” value ([1]; E2 for 24 hours, compared to controls) was “dose-dependent increase”. The “time of maximum HSP27 secretion” value ([1]; estrogen-induced release over time) was 24 h.

In the case of fucoidan [reference compound], the “inhibition of acLDL uptake by macrophages” value ([4]; fucoidan 10 ug/ml before acLDL or HSP27) is reported as “capable of inhibiting this process” and the “HSP27 binding to SR-A in the presence of competitor” value ([5]; fucoidan 10 ug/ml before HSP27) is reported as “reduced”.

In the case of “rHSP27: recombinant human heat shock protein 27 produced in E. coli, purified, injected subcutaneously”, the body weight ([6]; 100 ug BID, 3 weeks) is reported as “did not change”, the “cholesterol levels contained by VLDL and IDL/LDL (FPLC)” value ([6]; 100 ug BID, 3 weeks) is reported as “reduces cholesterol levels contained by VLDL and IDL/LDL” and the “number of WBC (peripheral blood smears)” value ([6]; 100 ug BID, 3 weeks) is reported as “did not change”. For the same molecule, the “reduction in abundance of aortic sinus lesion macrophages” value ([6]; 100 ug BID, 3 weeks, Mac-2) was “approximately 45%”, the “reduction in abundance of apoptotic macrophages in aortic sinus lesion” value ([6]; 100 ug BID, 3 weeks, TUNEL) was roughly 80% and the “reduction in aortic sinus lesion area” value ([6]; 100 ug BID, 3 weeks, p=0.002) was 26%. The “reduction in aortic wall (en face) lesion area” value ([6]; 100 ug BID, 3 weeks, p=0.01) was 27%, the liver cholesterol content ([6]; 100 ug BID, after the 3rd week) was “without a rise” and the “serum total cholesterol levels lower by” value ([6]; 100 ug BID, after the 3rd week, vs PBS) was 41%. The “adverse events when injected in mice” value ([6]; mouse, in vivo) was “did not cause adverse events”, the “atherogenesis in ApoE−/− mice” value ([6]; mouse, in vivo) was “efficacious in reducing atherogenesis” and the “serum rHSP27 level with twice daily injection schedule” value [7] was “effective to maintain a serum level of rHSP27”. For the same molecule, the “chaperone activity (in vitro aggregation and refolding assays)” value [8] was “functional”.

For “recombinant HSP27: Recombinant HSP27 was purchased from Stressgen; heat shock protein 27 added extracellularly to macrophages”, the “reduction in acLDL uptake by macrophages” value ([4]; recombinant HSP27 5 μg/ml, fluorescently labeled acLDL 5 μg/ml, normalized to total cell number) was 41%, the “HSP27 binding to the cell surface of macrophages from SR-A null mice” value ([5]; 5 μg/ml, 2 hours at 4° C.) was “completely abolished” and the “binding to surface of macrophages and co-localization with SR-A” value ([5]; 5 μg/ml, 2 hours at 4° C., confocal microscopy) was “capable of binding the surface of macrophages, and co-localizes with SR-A”. For the same molecule, the “acLDL-induced secretion of IL-1β” value [9] was “decrease”, the “release of IL-10” value [9] was “increased” and the “acLDL-induced secretion of IL-1β” value ([9]; listed as HSP27) was “considerable decrease; also recorded: reduced”.
